Experimental data from publication PMC10341893, “Motifs in Natural Products as Useful Scaffolds to Obtain Novel Benzo[d]imidazole-Based Cannabinoid Type 2 (CB2) Receptor Agonists” (International Journal of Molecular Sciences, 2023).
Where two headings read alike, the source gives them in different places.

How the values were obtained:
hCB2 receptor [1] = molecular target: T1, hCB2 receptor (Homo sapiens, UniProt P34972); assay: CB2 receptor binding assay ([3H]-CP-55,940 displacement, HEK cell membranes); parameters: expressed in transfected cells; host or cells: HEK cells; conditions: for Ki (CB1)/Ki (CB2): selectivity ratio CB2 over CB1
T1 sequence (P34972 whole entry): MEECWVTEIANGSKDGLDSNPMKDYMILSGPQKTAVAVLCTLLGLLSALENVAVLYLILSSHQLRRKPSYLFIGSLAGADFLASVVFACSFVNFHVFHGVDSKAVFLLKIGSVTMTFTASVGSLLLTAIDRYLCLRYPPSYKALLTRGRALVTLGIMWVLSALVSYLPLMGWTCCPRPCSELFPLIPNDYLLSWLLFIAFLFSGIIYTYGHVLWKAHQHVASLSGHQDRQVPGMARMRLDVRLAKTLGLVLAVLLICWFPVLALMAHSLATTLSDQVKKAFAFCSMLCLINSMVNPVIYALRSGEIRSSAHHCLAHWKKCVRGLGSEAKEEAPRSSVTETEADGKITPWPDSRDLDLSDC
Method: (§1) To assess the compound selectivity between CB1 and CB2 receptors, binding constants were determined through a radioligand displacement assay by testing concentration–response curves for compounds 5, 6, 16, 19, and 22. As shown in Figure 4 and summarized in Table 4, three of the tested compounds (5, 19, and 22) presented moderate binding affinity in a low micromolar range to both CB1 and CB2 receptors.
(§2) CB1 and CB2 receptor binding assays were performed exactly as previously described. […] Displacement curves were performed by incubating [^3H]-CP-55 940 (90 min, 30 °C) with increasing concentrations of compounds (10 nM−10 μM). Ki values were calculated by applying the Cheng−Prusoff equation to the IC50 values (obtained by GraphPad, Prism Software 9.5) for the displacement of the bound radioligand by compounds.

hCB2 receptor [2] = molecular target: T1, hCB2 receptor; assay: cAMP accumulation assay (forskolin-stimulated, CHO cells expressing hCB2); format: cell-based; conditions: for agonist activity at CB2 (cAMP accumulation): recombinant cells expressing CB2 receptors
Method: Compounds were further characterized through in vitro functional assays by measuring the variation in forskolin-induced cAMP accumulation (Eurofins Cerep services). The tested compounds diminished the accumulation of cyclic AMP, indicating activity as agonists (Figure 3).
In vitro pharmacology assay for human CB2 agonist effect in CHO cells was performed by Eurofins Cerep (Celle-Lévescault, France). Five compounds were tested at several concentrations for EC50 determination. […] CHO cells stably expressing hCB2 receptor were used to determine agonist effect of compounds, based on the measurement of cAMP level. Assay protocol is adapted from Felder et al..

human recombinant CB1R = molecular target: T2, human recombinant CB1R (Homo sapiens, UniProt P21554); assay: CB1 receptor binding assay ([3H]-CP-55,940 displacement, HEK cell membranes)
T2 construct: expressed in transfected cells; host or cells: HEK cells
T2 sequence (P21554 whole entry): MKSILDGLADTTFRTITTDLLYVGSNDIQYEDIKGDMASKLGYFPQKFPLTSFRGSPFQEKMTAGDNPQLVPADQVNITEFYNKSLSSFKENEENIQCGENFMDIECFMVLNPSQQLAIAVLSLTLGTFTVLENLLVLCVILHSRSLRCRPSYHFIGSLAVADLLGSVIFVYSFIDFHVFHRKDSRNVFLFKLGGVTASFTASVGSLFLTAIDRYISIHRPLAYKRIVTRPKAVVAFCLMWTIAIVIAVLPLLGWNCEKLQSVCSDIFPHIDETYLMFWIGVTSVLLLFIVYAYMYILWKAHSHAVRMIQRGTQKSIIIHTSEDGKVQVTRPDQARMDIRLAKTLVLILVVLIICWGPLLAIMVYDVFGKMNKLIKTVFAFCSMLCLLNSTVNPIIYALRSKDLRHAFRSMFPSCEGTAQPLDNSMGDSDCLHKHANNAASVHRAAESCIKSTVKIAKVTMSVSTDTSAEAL
Method: as §1, §2

hCB2 receptor [3] = molecular target: T1, hCB2 receptor; assay: Single-dose radioligand displacement assay ([3H]WIN55212-2); format: binding; parameters: host or cells: CHO cells; conditions: membranes from recombinant CHO cells expressing human CB2, duplicate; for Inhibition (%) of [3H]WIN55212-2 specific binding: 10 µM single dose; for inhibition at 10 µM: read-out: Inhibition (%) of [3H]WIN55212-2 specific binding, 10 µM single dose
Method: To assess ligand binding to CB2 receptors, radioligand displacement assay at a single dose (10 μM) was performed in membranes obtained from recombinant CHO cells expressing human CB2 receptors (Eurofins Cerep SA, France). Out of 26 compounds, more than 50% of the molecules presented >50% displacement, while 20% of the compounds (5, 6, 16, 19, 22) presented >80% displacement of radioligand binding at a 10 μM dose. Compounds 5, 6, 16, 19, and 22 were further tested for CB2 receptor activation (agonist activity, see below) and CB2/CB1 selectivity.
All membrane preparations for these studies were generated at Cerep Inc. according to standard protocols. Duplicate determinations were performed for each test compound. Compounds were dissolved in DMSO to generate a stock solution. Radioligand binding methods were adapted from Munro et al..

MCF-7 cells = assay: Neutral red uptake assay, MCF-7; format: cell-based; conditions: Homo sapiens, MCF7, 72 h incubation, triplicate, read-out: IC50 Viability
Method: (§3) Compound 6 was tested through a neutral red uptake assay, and cell viability was measured. Neutral red consists of a cationic dye that accumulates in lysosomes. Uptake of neutral red depends on a viable cell’s capacity to maintain acidic pH in the interior of lysosomes.
(§4) MCF-7 and HEK-293 cell lines were maintained at 37 °C in a humidified atmosphere containing 5% CO2. MCF-7 was grown in Roswell Park Memorial Institute (RPMI) 1640 and HEK-293 was grown in Dulbecco’s modified Eagle medium and Ham’s F-12 medium (DMEM/F12). All media was supplemented with 10% fetal bovine serum, penicillin (100 U/mL), streptomycin ([…]), and non-essential amino acids MEM 1×.
(§5) Cells were seeded in 100 μL of media at a density of 10^4 cells/well in 96-well microtiter plates. Solutions of compounds were previously prepared in DMSO, and 1 μL of the corresponding solution was added to each well. The final volume of each well was adjusted to 200 μL. After 72 h of incubation, culture media were removed, and 100 μL of 10 μg/mL neutral red solution prepared in culture media was added to each well and incubated for 2 h at 37 °C in a humidified atmosphere containing 5% CO2. […] The plate was placed for 15 min in a shaker, and fluorescence was measured using Cytation 5 apparatus (Biotek, Winooski, VT, USA) at 530/645 nm excitation/emission wavelengths.

HEK-293 cells = assay: Neutral red uptake assay, HEK-293; format: cell-based; conditions: Homo sapiens, HEK293
Method: as §3, §4, §5

[4] = [3H]-CP-55,940 displacement, means ± SD of 3 independent experiments in duplicate, read-out: Ki CB2
[5] = [3H]-CP-55,940 displacement, means ± SD of 3 independent experiments in duplicate, read-out: Ki CB1

Ki (CB1)/Ki (CB2) (hCB2 receptor [1]) | agonist activity at CB2 (cAMP accumulation) (hCB2 receptor [2]) | Inhibition (%) of [3H]WIN55212-2 specific binding (hCB2 receptor [3]) [%] | Ki (hCB2 receptor [1]; [4]) [nM] | EC50 (hCB2 receptor [2]; recombinant CHO cells expressing hCB2, duplicate, read-out: EC50, inhibition of forskolin-stimulated cAMP accumulation) [nM] | Ki (human recombinant CB1R; [5]) [nM] | IC50 (MCF-7 cells) [nM] | Compound | Ki (hCB2 receptor [1]) [nM] | EC50 (hCB2 receptor [2]) [nM] | Ki (human recombinant CB1R) [nM] | inhibition at 10 µM (hCB2 receptor [3]) [%] | IC50 (HEK-293 cells; HEK-293, 72 h incubation, triplicate, read-out: IC50 Viability) [nM] | IC50 (HEK-293 cells; range over HEK-293 and MCF-7 cells, read-out: IC50 of toxicity) [nM]
– | agonist activity was confirmed | 89 | 440 ± 100 | 3.36 | > 10000 | 38000 | CCn1c(OC2CC(C)CCC2C(C)C)nc2ccccc21 (stereo not shown) [Compound 6, 1-ethyl-2-((2-isopropyl-5-methylcyclohexyl)oxy)-1H-benzo[d]imidazole] | – | – | – | > 80 | 30000 | 30000 to 38000
1.3 | agonist activity was confirmed | 88 | 930 ± 290 | – | 1230 ± 880 | – | COc1ccc(CSc2nc3ccccc3n2Cc2ccccc2)cc1 [Compound 19, 1-benzyl-2-((4-methoxybenzyl)thio)-1H-benzo[d]imidazole] | – | – | – | > 80 | – | –
3.4 | agonist activity was confirmed | 84 | 600 ± 520 | – | 2040 ± 1220 | – | COc1cccc(Oc2nc3ccccc3n2Cc2ccccc2)c1 [Compound 22, 1-benzyl-2-(3-methoxyphenoxy)-1H-benzo[d]imidazole] | – | – | – | > 80 | – | –
– | – | – | – | – | – | – | CCCCCCC(C)(C)c1cc(OC)cc(Oc2nc3ccccc3n2Cc2cccc3ccccc23)c1 [Compound 24, 2-(3-methoxy-5-(2-methyloctan-2-yl)phenoxy)-1-(naphthalen-1-ylmethyl)-1H-benzo[d]imidazole] | – | – | – | 32 | – | –
– | – | – | – | – | – | – | CCCCCCC(C)(C)c1cc(OC)cc(Oc2nc3ccccc3n2Cc2ccccc2)c1 [Compound 25, 1-benzyl-2-(3-methoxy-5-(2-methyloctan-2-yl)phenoxy)-1H-benzo[d]imidazole] | – | – | – | 33 | – | –
– | – | – | – | – | – | – | CCCCCCC(C)(C)c1cc(OC)cc(Oc2nc3ccccc3n2CC)c1 [Compound 26, 1-ethyl-2-(3-methoxy-5-(2-methyloctan-2-yl)phenoxy)-1H-benzo[d]imidazole] | – | – | – | 49 | – | –

Compound | Ki (CB1)/Ki (CB2) (hCB2 receptor [1]) | agonist activity at CB2 (cAMP accumulation) (hCB2 receptor [2]) | Inhibition (%) of [3H]WIN55212-2 specific binding (hCB2 receptor [3]) [%] | Ki (hCB2 receptor [1]; [4]) [nM] | EC50 (hCB2 receptor [2]; recombinant CHO cells expressing hCB2, duplicate, read-out: EC50, inhibition of forskolin-stimulated cAMP accumulation) [nM] | Ki (human recombinant CB1R; [5]) [nM] | IC50 (MCF-7 cells) [nM] | Ki (hCB2 receptor [1]) [nM] | EC50 (hCB2 receptor [2]) [nM] | Ki (human recombinant CB1R) [nM] | inhibition at 10 µM (hCB2 receptor [3]) [%] | IC50 (HEK-293 cells; HEK-293, 72 h incubation, triplicate, read-out: IC50 Viability) [nM] | IC50 (HEK-293 cells; range over HEK-293 and MCF-7 cells, read-out: IC50 of toxicity) [nM]
CC1CCC(C(C)C)C(Oc2nc3ccccc3n2Cc2ccccc2)C1 (stereo not shown) [Compound 5, 1-benzyl-2-((2-isopropyl-5-methylcyclohexyl)oxy)-1H-benzo[d]imidazole] | 2.3 | agonist activity was confirmed | 90 | – | – | – | – | 400 ± 80 | 14 | 920 ± 1150 | > 80 | – | –
c1ccc(Cn2c(OC34CC5CC(CC(C5)C3)C4)nc3ccccc32)cc1 [Compound 16, 2-(adamantan-1-yloxy)-1-benzyl-1H-benzo[d]imidazole] | – | agonist activity was confirmed | 86 | – | – | – | – | 630 ± 190 | 20 | > 10000 | > 80 | – | –
